The values below come from patent US20100120787A1, “MODIFICATION OF AMYLOID-BETA LOAD IN NON-BRAIN TISSUE” (MODGENE, LLC, priority 2008, published 2010).

Read-outs that look alike come from different tables or passages of the source.

For data set [1] the following is noted: pH 8; cited from earlier work.
The conditions of data set [2]: humans; cited from earlier work.
The conditions of data set [3]: cited from earlier work.
For data set [4] the following is noted: cited from earlier work. This is another data set of the same source.
In a further data set the test system is Aβ hexamers in plasma. The data set is described as follows: Plasma (blood) Aβ levels in mice after intraperitoneal STI-571, Western blot/ELISA. It counts as in vivo, mouse. On the procedure: […]. Wild-type C57Bl/6 and DBA/2J male mice (age 8-12 weeks) were administered drug or vehicle twice daily for 7 days by intraperitoneal injection. […]. […] See, for example, Gleevec Prescribing Information 2003 revision T2003-09; Printed in U.S.A. 89019001 (Novartis), incorporated herein by reference.
Animals were sacrificed 12 hr after the last injection. Individual mice were anesthetized with isoflurane and blood samples (100-300ul) taken by cardiac puncture with heparinized syringes. Samples were placed on ice for 30 minutes in the presence of EDTA and then centrifuged for 20 minutes at 16,000×g at 4° C. The plasma fraction was removed and stored at −80° C. Brains were removed and frozen rapidly on dry ice and stored at −80° C.
Detection of mouse Aβ1-40 in blood and brain samples was performed by using a commercially available immunoassay kit (Biosource mouse Aβ1-40, Catalog No. KMB3481, Invitrogen, Carlsbad, Calif.) or by Western blot. Mouse brain samples were prepared by homogenizing brain tissue in a polytron in the presence of 5M guanidine HCl and 50 mM Tris HCl, pH 8.0 as described in the assay protocol. […]
Blood samples were diluted 1:5 in standard diluent buffer. Samples were assayed in duplicate and OD450 measured on a Tecan infinite 2000 plate reader. […]

For data set [5] the following is noted: statement in words, cited from earlier work.
A further data set has as its system Notch signaling. To be noted: while reducing Aβ production; cited from earlier work.
Data set [6] concerns primary neurons prepared from cerebral cortex. Particulars: embryonic day 18 rats; cited from earlier work.
The subject of another data set is Aβ accumulation in brain. Particulars: intrathecal delivery by osmotic minipumps, guinea pigs; cited from earlier work.

As for `COc1ccc(-c2nc3ncccc3[nH]2)c(OC)c1.Cl` [ARL-57], the “log P” value in [1] is given as 2.59. Besides, in data set [2], the CNS side effects entry is “spectacular bright color vision”.

Consider `Cc1ccc(NC(=O)c2ccc(CN3CCNCC3)cc2)cc1Nc1nccc(-c2cccnc2)n1` [N-desmethyl derivative], for which the “plasma AUC of metabolite relative to the AUC for imatinib” value in [3] (humans) was “about 15%”. Also, in data set [3] (oral administration in healthy volunteers), the elimination half-life is around 40 h.

As for `Cc1ccc(NC(=O)c2ccc(CN3CCN(C)CC3)cc2)cc1Nc1nccc(-c2cccnc2)n1` [STI-571], the “absorption after oral administration” value in [4] (human, in vivo, po) is listed as “rapidly absorbed”. The “mean AUC versus dose” value in data set [4] (human, in vivo) was “did not increase proportionally with increasing dose”. For the same molecule, in [4] (pediatric patients, oral), the “Cmax (time)” value is 2 to 4 h. The “reduction of plasma levels of Aβ” value in the data set on Aβ hexamers in plasma (20 mg/kg IP twice daily for 7 days, B6 mice) is recorded as “approximately 50%”. In addition, the “reduction of circulating Aβ” value in the data set with Aβ hexamers in plasma (highest dose (100 mg/kg) IP twice daily for 7 days, young D2 mice) is reported as “approximately 75%”. The entries for the “penetration of the blood-brain barrier” value in [5], in data set [5] (listed as GLEEVEC/STI-571) and in data set [5] (listed as imatinib) were “poor penetration of the blood-brain barrier”, “poor penetration of the blood-brain barrier” and “does not substantially penetrate the blood brain barrier”, respectively.

Regarding `COc1cc([S+](C)[O-])ccc1-c1nc2ncccc2[nH]1` (centres unmarked) [ARL115, sulmazole], the lipophilicity (log P) in data set [1] was 1.17. Moreover, the CNS side effects result in data set [2] is “lack the CNS side effects”.

As to “6-(2,6-dichlorophenyl)-8-methyl-2-(methylsulfanylphenyl-amino)-8H-pyrido[2,3-d]pyrimidin-7-one [inhibitor 2]”, in the data set with Notch signaling, the “effect on Notch signaling” value was “without affecting Notch signaling”. For the same molecule, the “production of Aβ” value in data set [6] is reported as “reduce production of Aβ”. Moreover, the “Aβ accumulation in brain” value with Aβ accumulation in brain was “decrease in Aβ accumulation in brain”.
